According to patent publication US20160030459A1, “COMPOSITIONS AND METHODS FOR TREATING ALLERGIC CONDITIONS” (IMMUNE DESIGN CORP., priority 2014, published 2016):

Legend:
[1] = test system: various human cell types; assay: Effect of GLA adjuvant in vitro on cytokine expression of human cells; type: cell-based
Method: (§1) The effect of GLA adjuvant in vitro on various human cell types was evaluated.

[2] = test system: Male cynomolgus macaques with a known sensitivity to inhaled Ascaris suum; assay: Primate model of allergic rhinitis, intranasal adjuvant; type: in vivo, cynomolgus macaque
Method: GLA adjuvant was evaluated in a nonhuman primate allergic rhinitis model. Male cynomolgus macaques with a known sensitivity to inhaled Ascaris suum were treated with a composition comprising a GLA adjuvant, in an aqueous formulation, via intranasal delivery.
12 animals were assigned randomly to each of vehicle or drug treatment groups. The drug treatment group received 100 μl of a composition containing 5.0 μg GLA adjuvant in an aqueous formulation, intranasally in each nostril, for a total dose of 10 μg. The vehicle group received 100 μl of vehicle in each nostril. The adjuvant or vehicle was administered intranasally once weekly for 4 consecutive weeks. All intranasal dosing was administered using a Penn Century Microsprayer.
The animals were challenged with Ascaris suum into the left nostril concurrent with treatment on days 0 and 14 (at the first and third treatment times).
Animals with severe rhinitis have reduced nasal area or increased nasal congestion as compared to those with improved response and increased nasal area or decreased nasal congestion. Nasal lavage samples were also obtained and total and differential cell count were evaluated.
Briefly, animals were sedated and placed on a ventilator. Blood samples were drawn. A baseline Acoustic Rhinometer measurement (nasal volume and nasal minimum cross-sectional area) was taken in the left nostril followed by instillation of 100 μl saline using a microspayer. After instillation of saline, Acoustic Rhinometry measurements (nasal volume and nasal minimum cross-sectional area) were taken at 2 minutes. Next 100 μl of A. suum (10.0 mg/ml) was instilled into the left nostril using a microsprayer and Acoustic Rhinometry measurements were taken at 1, 2, 3 minutes. Fifteen minutes after A. suum challenge a nasal lavage was performed using 3.0 ml saline injected into the left nostril. After nasal lavage, sedation was reversed.
Total cell count in the nasal lavage samples was determined using the Advia120 hematology analyzer (SOP BW-INM-Resp-SOP-09033). Differential cell counts were performed with cystospins manually on 200 cells using standard morphological criteria.

[3] = test system: OVA-sensitized mice; assay: Prophylactic dosing regimens in murine model of allergy; type: in vivo, mouse
Method: Three different prophylactic dosing regimens of GLA adjuvant, in an aqueous formulation, were evaluated in the same murine model of allergy described in Example 2. Mice were divided into three treatment arms (20 mice per group), treated as follows starting at 1 week post OVA sensitization, and then challenged with OVA or saline (negative control):
Vehicle-treated at day 14; Saline challenged (negative control) Vehicle-treated at day 14; OVA challenged (positive control) GLA-treated at day 14, with a single dose of GLA (2 ug/animal, i.n.); OVA challenged GLA-treated on days 14, 15, 16, 17, with 4 doses of GLA on consecutive days (each dose 2 ug/animal, i.n.); OVA challenged GLA+Ag-treated on day 14, single dose GLA (2 ug/animal, i.n.)+OVA antigen (20 ug/animal, i.n.); OVA challenged
The animals were challenged with OVA or saline i.n. for 4 consecutive days, 5-7 days post treatment (at days 22, 23, 24 and 25). Airway hyperresponsiveness (AHR) was determined at 1 or 2 days post challenge (the large number of animals required two days to complete the AHR testing). Bronchoalveolar lavage fluid (BALF), thoracic lymph nodes and spleen were collected for FACS & cytokine analysis, and serum was collected for IgE and IgG levels.

[4] = test system: dendritic cells (both myeloid and monocyte-derived); assay: Activation and maturation of dendritic cells in vitro; type: cell-based, human
Method: as §1

[5] = test system: PBMCs from peanut allergic subjects; assay: T cell proliferation and cytokine expression of PBMCs from peanut-allergic subjects; type: cell-based, human
From the text: PBMCs were collected from peanut allergic and non-allergic subjects (n=4) and evaluated for T cell proliferation and cytokine expression after exposure to peanut extract and GLA. […] In addition, these samples had increased tolerogenic IL-10 expression and […] IL-2 expression indicative of inhibition of T cell proliferation.

[6] = test system: Male cynomolgus macaques with a known sensitivity to inhaled Ascaris suum; assay: Primate model of allergic rhinitis, intramuscular adjuvant; type: in vivo, cynomolgus macaque; settings: GLA 10 ug intramuscularly, four weekly doses; ascaris antigens intranasally
Method: GLA adjuvant was evaluated in a nonhuman primate allergic rhinitis model. Male cynomolgus macaques with a known sensitivity to inhaled Ascaris suum were treated with a composition comprising a GLA adjuvant, in an oil-based emulsion formulation, with and without allergen, via intramuscular delivery.
Animals (n=12) were treated with four doses of GLA (10 ug) at weekly intervals and were exposed to Ascaris suum antigens at the same time. The evaluation of the response was determined by acoustic rhinometry which measured the nasal area as an indication of congestion Animals with severe rhinitis have reduced nasal area or increased nasal congestion as compared to those with improved response and increased nasal area or decreased nasal congestion.
In this study, animals treated with GLA-SE were compared with animals treated with SE alone. In addition, ascaris antigens in conjunction with GLA were tested. Ascaris antigens were either delivered in combination with GLA via the intramuscular route of administration, or were delivered intranasally separate from the intramuscular GLA treatment.

[7] = test system: PBMCs from Timothy Grass allergic subjects; assay: Cytokine expression of PBMCs from Timothy grass-allergic subjects; type: cell-based, human; settings: Timothy grass allergen and GLA
From the text: PBMCs were collected from Timothy Grass allergic and non-allergic subjects and evaluated for T cell cytokine expression after exposure to Timothy grass allergen and GLA. As shown in FIG. 16A-16D, GLA decreased IL-5 and increased IFN-γ, IL-12 and TNF-alpha cytokine response to Timothy grass allergen.

[8] = test system: Male Balb/c mice sensitized with OVA; assay: Murine model of chronic allergy (OVA-induced airway inflammation and hyperreactivity); type: in vivo, mouse
Method: The effect of GLA was evaluated in a chronic model Of OVA-induced airway inflammation and airway hyperreactivity in mice. Male Balb/c mice were sensitized systemically with OVA i.p. over a 2 week period (days 0 & 14). One week later, they were challenged with OVA i.n for 3 consecutive days (days 22 through 24). The animals were then treated once with GLA, in an aqueous formulation, i.n., 1 day post-challenge (day 25) as follows (20 mice per group):
Vehicle-treated; Saline challenged (negative control) Vehicle-treated; OVA challenged (positive control) GLA-treated, single dose (2 ug/animal, i.n.); OVA challenged
The animals were challenged again with OVA i.n. 1 month later (days 55 & 56). AHR as described above in Example 2 was performed 1-2 days post 2nd challenge (the large number of animals required two days to complete the AHR testing). Bronchoalveolar lavage fluid (BALF), thoracic lymph nodes and spleen were collected for FACS & cytokine analysis, and serum was collected for IgE and IgG levels.

[9] = test system: mice presensitized with intra-gastric RPE; assay: Murine model of peanut allergy, related study with GLA-SE +/- peanut extract; type: in vivo, mouse; settings: with or without antigen, s.c.
Method: In a related study, mice were presensitized with intra-gastric RPE six times at days 0, 1, 2, 7, 14 and 21 (FIG. 15). On days 29, 35, 42 and 49, mice were treated subcutaneously with 2 ug GLA-SE or 2 ug GLA-SE+50 ug RPE. Mice were subsequently challenged by intraperitoneal administration on study day 55 with 12 mg RPE. Anaphylaxis scores and body temperature of mice were then measured. […] Disease scoring was as follows: 1: mild anaphylaxis (scratching, mild snout swelling); 2: Moderate anaphylaxis (mod swelling, mild lethargy) 3: =Severe anaphylaxis (severe swelling, lethargy); 4: Very severe anaphylaxis (moribund, labored breathing); 5: Death.

[10] = treatment period (weeks 1-4) and 4 weeks post treatment (weeks 5-8)
[11] = 4 doses on days 14, 15, 16, 17, each 2 ug/animal i.n.
[12] = single dose day 14, 2 ug/animal i.n.
[13] = Day 1 after peanut extract and GLA exposure

CCCCCCCCCCCCCC(=O)OC(CCCCCCCCCCC)CC(=O)NC1C(OCC2OC(O)C(NC(=O)CC(O)CCCCCCCCCCC)C(OC(=O)CC(O)CCCCCCCCCCC)C2O)OC(CO)C(OP(=O)(O)O)C1OC(=O)CC(CCCCCCCCCCC)OC(=O)CCCCCCCCCCCCC (centres unmarked) [GLA, glucopyranosyl lipid A]
GM-CSF expression [1]: induced expression
IL-1β expression [1]: induced expression
IL-6 expression [1]: induced expression
IL-8 expression [1]: induced expression
IL-10 expression [1]: induced expression
TNF-α expression [1]: induced expression
percentage of baseline nasal cross sectional area ([2]; 10 μg intranasal once weekly for 4 weeks, compared with vehicle): increased
antigen-induced nasal congestion ([2]; aqueous formulation, 10 μg intranasal once weekly for 4 weeks, A. suum challenge): reduced
differential cell count (lymphocyte, monocyte, granuolocyte, neutrophil, eosinophil or basophil cell numbers) [2, 10]: not altered
platelet counts [2, 10]: did not alter
red blood cell counts [2, 10]: did not alter
white blood cell counts [2, 10]: did not alter
CD3+ T cells in BALF [3, 11]: decreased
eosinophil in BALF [3, 11]: decreased
total leukocytes in BALF [3, 11]: decreased
cellularity systemically, in spleen or lymph nodes ([3]; i.n. GLA treatment): did not alter
numbers of CD3+ T cells in BALF [3, 12]: did not alter
numbers of eosinophils in BALF [3, 12]: did not alter
numbers of macrophages in BALF [3, 12]: did not alter
activation and maturation of dendritic cells [4]: induced activation and maturation
IL12p70 (IL-12) expression [5, 13]: increased
IL-2 expression [5, 13]: increased
interferon gamma expression [5, 13]: increased
tolerogenic IL-10 expression [5, 13]: increased
CD4 T cell proliferation ([5]; Day 6 after exposure to peanut extract and GLA): dose-dependent antigen specific inhibition
nasal rhinitis scores [6]: did not improve
IL-12 cytokine response to Timothy grass allergen ([7]; 2 day culture): increases
TNF-alpha cytokine response to Timothy grass allergen ([7]; 2 day culture): increases
IFN-γ cytokine response to Timothy grass allergen ([7]; 6 day culture): increases
IL-5 cytokine response to Timothy grass allergen ([7]; 6 day culture): decreases
leukocyte cell count in BALF (including eosinophil, macrophage or CD3+ T cell counts) ([8]; single dose 2 ug/animal i.n.): did not alter
time after GLA dosing for which effects could be observed ([8]; single dose 2 ug/animal i.n.): at least 1 month
airway hyperresponsiveness ([8]; single dose 2 ug/animal i.n. day 25, 1 month before allergen challenge): attenuate
IL-4 expression in the airway after allergen challenge ([8]; single dose 2 ug/animal i.n. one month before allergen challenge): attenuate
peanut allergy in a mouse model [9]: attenuates
